PubChem BioAssay (NCI)
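Results reflect a 48-hour exposure of cells in 96-well plates to compound at five concentrations. GI50: concentration for 50% inhibition of growth. TGI: concentration producing complete growth inhibition.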

How the values were obtained:
Test in all cases: DTP human tumour cell line panel, 48 h
[1] = system: HOP-62 NSCLC
[2] = system: UACC-257 melanoma
[3] = system: SK-MEL-5 melanoma
[4] = system: U251 CNS
[5] = system: MOLT-4 leukemia
[6] = system: T-47D breast
[7] = system: TK-10 renal
[8] = system: IGROV1 ovarian
[9] = system: OVCAR-3 ovarian
[10] = system: 786-0 renal
[11] = system: RPMI-8226 leukemia
[12] = system: SN12C renal
[13] = system: SF-268 CNS
[14] = system: K-562 leukemia
[15] = system: M14 melanoma
[16] = system: SF-539 CNS
[17] = system: A549 NSCLC
[18] = system: HCC-2998 colon
[19] = system: SK-MEL-28 melanoma
[20] = system: ACHN renal
[21] = system: CAKI-1 renal
[22] = system: MDA-MB-468 breast
[23] = system: SK-OV-3 ovarian
[24] = system: MALME-3M melanoma
[25] = system: LOX IMVI melanoma
[26] = system: SNB-75 CNS
[27] = system: SK-MEL-2 melanoma
[28] = system: OVCAR-5 ovarian
[29] = system: OVCAR-8 ovarian
[30] = system: OVCAR-4 ovarian
[31] = system: HOP-92 NSCLC
[32] = system: NCI-H226 lung
[33] = system: NCI-H522 lung
[34] = system: DU-145 prostate
[35] = system: SNB-19 CNS
[36] = system: SW-620 colon
[37] = system: COLO 205 colon
[38] = system: HCT-15 colon
[39] = system: UACC-62 melanoma
[40] = system: HS 578T breast
[41] = system: EKVX NSCLC
[42] = system: MDA-MB-435
[43] = system: RXF 393 renal
[44] = system: PC-3 prostate
[45] = system: KM12 colon
[46] = system: MCF7 breast
[47] = system: HCT-116 colon
[48] = system: HT29 colon
[49] = system: SF-295 CNS
[50] = system: CCRF-CEM leukemia
[51] = system: BT-549 breast
[52] = system: A498 renal
[53] = system: NCI/ADR-RES ovarian
[54] = system: NCI-H460 lung
[55] = system: NCI-H23 lung
[56] = system: HL-60(TB) leukemia

## COc1ccc2[nH]c(=O)c(CSc3nccc(-c4ccc(Cl)cc4)n3)cc2c1
[1]
  GI50: 16.5 µM
  TGI: 34.3 µM
[2]
  GI50: 22.2 µM
  TGI: 55.6 µM
[3]
  GI50: 13.6 µM
  TGI: 31.3 µM
[4]
  GI50: 15.2 µM
  TGI: 28.8 µM
[5]
  GI50: 12 µM
  TGI: > 100 µM
[6]
  GI50: 13.7 µM
  TGI: 31 µM
[7]
  GI50: 16.6 µM
  TGI: 36.1 µM
[8]
  GI50: 25.5 µM
  TGI: 89.7 µM
[9]
  GI50: 18.6 µM
  TGI: 39.1 µM
[10]
  GI50: 13.8 µM
  TGI: 26.7 µM
[11]
  GI50: 11.7 µM
  TGI: 39.5 µM
[12]
  GI50: 15.2 µM
  TGI: 32.9 µM
[13]
  GI50: 25.4 µM
  TGI: > 100 µM
[14]
  GI50: 27.8 µM
  TGI: > 100 µM
[15]
  GI50: 17.6 µM
  TGI: 34.2 µM
[16]
  GI50: 14.9 µM
  TGI: 29.7 µM
[17]
  GI50: 14.6 µM
  TGI: 30.8 µM
[18]
  GI50: 22.5 µM
  TGI: 56.3 µM
[19]
  GI50: 20.6 µM
  TGI: 51.6 µM
[20]
  GI50: 16.8 µM
  TGI: 40.1 µM
[21]
  GI50: 15.8 µM
  TGI: 37.7 µM
[22]
  GI50: 12.5 µM
  TGI: 26.1 µM
[23]
  GI50: 39.3 µM
  TGI: > 100 µM
[24]
  GI50: 18.6 µM
  TGI: 38.6 µM
[25]
  GI50: 17.1 µM
  TGI: 34.2 µM
[26]
  GI50: 23.7 µM
  TGI: 65.1 µM
[27]
  GI50: 18.1 µM
  TGI: 44 µM
[28]
  GI50: 24.7 µM
  TGI: 93 µM
[29]
  GI50: 16.8 µM
  TGI: 32.4 µM
[30]
  GI50: 18.5 µM
  TGI: 64.9 µM
[31]
  GI50: 6.22 µM
  TGI: 32.5 µM
[32]
  GI50: 18.5 µM
  TGI: 59.9 µM
[33]
  GI50: 14.8 µM
  TGI: 28.5 µM
[34]
  GI50: 26 µM
  TGI: > 100 µM
[35]
  GI50: 18 µM
  TGI: 43.5 µM
[36]
  GI50: 20.6 µM
  TGI: 45.9 µM
[37]
  GI50: 23.9 µM
  TGI: 61.7 µM
[38]
  GI50: 22 µM
  TGI: 65.8 µM
[39]
  GI50: 15.3 µM
  TGI: 78.3 µM
[40]
  GI50: 26 µM
  TGI: > 100 µM
[41]
  GI50: 31.2 µM
  TGI: > 100 µM
[42]
  GI50: 30 µM
  TGI: > 100 µM
[43]
  GI50: 14.4 µM
  TGI: 28.5 µM
[44]
  GI50: 19 µM
  TGI: > 100 µM
[45]
  GI50: 29.2 µM
  TGI: 90.9 µM
[46]
  GI50: 17 µM
  TGI: 33.5 µM
[47]
  GI50: 13 µM
  TGI: 26.8 µM
[48]
  GI50: 28.9 µM
  TGI: > 100 µM
[49]
  GI50: 14.4 µM
  TGI: 28.4 µM
[50]
  GI50: 77.1 µM
  TGI: > 100 µM
[51]
  GI50: 20 µM
  TGI: > 100 µM
[52]
  GI50: 23.8 µM
  TGI: 63 µM
[53]
  GI50: 15.4 µM
  TGI: 38.7 µM
[54]
  GI50: 17.2 µM
  TGI: 35.4 µM
[55]
  GI50: 18.9 µM
  TGI: 42.5 µM
[56]
  GI50: > 100 µM
  TGI: > 100 µM
